Measured values published in patent US20240025908A1, “COMPOUND USED AS KINASE INHIBITOR AND USE THEREOF” (TYK MEDICINES, INC., priority 2020, published 2024).

What was measured:
Type in all cases: biochemical
TRKA (G677C) = TRKA (G677C) (Homo sapiens, UniProt P04629, G667C); assay: Radio-tagged HotSpot kinase assay, TRKA (G677C); conditions: read-out: TRKA (G677C) (IC50/nM)
Protocol: (§1) Inhibition of protein kinase activity by compounds was carried out on the Radio-tagged HotSpot kinase experimental platform of Reaction Biology Corporation. Fresh reaction solution (20 mM TIEPESpH 7.5, 10 mM MgCl2, 1 mM EGTA, 0.02% Brij35, 0.02 mg/ml BSA, 0.1 mM Na3VO4, 2 mM DTT, […]) containing corresponding substrates was prepared, cofactor and kinase to be tested were added into the above solution and mixed gently. Echo550 pipetting system was used to add the test compound DMSO solution to each well (the blank control group was added with the corresponding volume of DMSO), then 33P-ATP (with a final specific activity of 0.01 μCi/μL) was added to start the reaction. The reaction solution was incubated at room temperature for 120 minutes. Transferred the incubated reaction solution to P81 ion exchange chromatographic paper (Whatman #3698-915), eluted with […] phosphoric acid solution, and the amount of radioactive phosphorylated substrate remaining on the chromatographic paper was detected.

ROS1 = ROS1 (Homo sapiens (Human), UniProt P08922); assay: Radio-tagged HotSpot kinase assay, ROS1
Protocol: as §1

ROS1 (G2032R) = ROS1 (G2032R) (Homo sapiens (Human), UniProt P08922, G2032R); assay: Radio-tagged HotSpot kinase assay, ROS1 (G2032R)
Protocol: as §1

ALK (G1202R) = ALK (G1202R) (Homo sapiens (Human), UniProt Q9UM73, G1202R); assay: Radio-tagged HotSpot kinase assay, ALK (G1202R)
Protocol: as §1

TRKA = TRKA (Homo sapiens (Human), UniProt P04629); assay: Radio-tagged HotSpot kinase assay, TRKA
Protocol: as §1

ALK = ALK (Homo sapiens (Human), UniProt Q9UM73); assay: Radio-tagged HotSpot kinase assay, ALK
Protocol: as §1

ALK (G1202R), sequence (Q9UM73 19-1620 G1202R): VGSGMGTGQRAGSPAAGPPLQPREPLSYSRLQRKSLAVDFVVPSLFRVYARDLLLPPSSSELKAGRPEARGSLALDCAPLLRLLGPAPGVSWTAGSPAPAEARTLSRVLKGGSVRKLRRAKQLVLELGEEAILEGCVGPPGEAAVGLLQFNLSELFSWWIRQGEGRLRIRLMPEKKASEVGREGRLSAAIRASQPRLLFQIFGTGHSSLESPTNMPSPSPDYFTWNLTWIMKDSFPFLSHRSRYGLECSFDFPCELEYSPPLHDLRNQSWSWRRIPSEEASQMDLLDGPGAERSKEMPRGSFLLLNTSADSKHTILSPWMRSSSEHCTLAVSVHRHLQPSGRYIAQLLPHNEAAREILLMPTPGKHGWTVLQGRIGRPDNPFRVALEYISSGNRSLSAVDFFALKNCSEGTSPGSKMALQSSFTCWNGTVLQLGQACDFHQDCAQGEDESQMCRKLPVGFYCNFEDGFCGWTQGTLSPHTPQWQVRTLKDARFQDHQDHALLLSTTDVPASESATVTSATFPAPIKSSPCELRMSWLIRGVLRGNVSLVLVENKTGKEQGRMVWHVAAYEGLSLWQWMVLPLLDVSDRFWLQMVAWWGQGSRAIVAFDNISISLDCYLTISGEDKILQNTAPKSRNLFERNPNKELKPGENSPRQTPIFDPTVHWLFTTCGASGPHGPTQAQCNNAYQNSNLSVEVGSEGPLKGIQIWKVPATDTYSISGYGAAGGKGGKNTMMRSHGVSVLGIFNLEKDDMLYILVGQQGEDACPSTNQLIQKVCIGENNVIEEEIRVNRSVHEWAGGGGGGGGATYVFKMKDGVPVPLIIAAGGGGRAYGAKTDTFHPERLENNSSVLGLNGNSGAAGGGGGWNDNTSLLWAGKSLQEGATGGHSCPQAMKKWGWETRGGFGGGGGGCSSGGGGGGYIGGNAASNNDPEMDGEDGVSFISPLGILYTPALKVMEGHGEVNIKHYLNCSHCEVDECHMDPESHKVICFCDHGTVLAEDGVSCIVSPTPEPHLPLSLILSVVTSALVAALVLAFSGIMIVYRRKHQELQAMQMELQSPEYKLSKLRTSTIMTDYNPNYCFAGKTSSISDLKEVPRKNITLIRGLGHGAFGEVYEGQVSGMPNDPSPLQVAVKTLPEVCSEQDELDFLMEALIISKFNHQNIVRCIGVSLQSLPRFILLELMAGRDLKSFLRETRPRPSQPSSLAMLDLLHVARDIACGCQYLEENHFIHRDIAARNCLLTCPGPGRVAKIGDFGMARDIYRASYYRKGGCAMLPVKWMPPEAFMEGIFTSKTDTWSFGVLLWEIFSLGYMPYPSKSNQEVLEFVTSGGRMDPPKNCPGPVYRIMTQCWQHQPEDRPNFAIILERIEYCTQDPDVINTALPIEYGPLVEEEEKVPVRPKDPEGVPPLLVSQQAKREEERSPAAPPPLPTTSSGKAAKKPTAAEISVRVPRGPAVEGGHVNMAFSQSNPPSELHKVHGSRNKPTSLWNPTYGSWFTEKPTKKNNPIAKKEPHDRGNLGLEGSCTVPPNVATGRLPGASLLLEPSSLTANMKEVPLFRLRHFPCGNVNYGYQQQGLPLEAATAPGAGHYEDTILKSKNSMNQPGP
TRKA (G677C), sequence (P04629 33-796 G667C limits assumed): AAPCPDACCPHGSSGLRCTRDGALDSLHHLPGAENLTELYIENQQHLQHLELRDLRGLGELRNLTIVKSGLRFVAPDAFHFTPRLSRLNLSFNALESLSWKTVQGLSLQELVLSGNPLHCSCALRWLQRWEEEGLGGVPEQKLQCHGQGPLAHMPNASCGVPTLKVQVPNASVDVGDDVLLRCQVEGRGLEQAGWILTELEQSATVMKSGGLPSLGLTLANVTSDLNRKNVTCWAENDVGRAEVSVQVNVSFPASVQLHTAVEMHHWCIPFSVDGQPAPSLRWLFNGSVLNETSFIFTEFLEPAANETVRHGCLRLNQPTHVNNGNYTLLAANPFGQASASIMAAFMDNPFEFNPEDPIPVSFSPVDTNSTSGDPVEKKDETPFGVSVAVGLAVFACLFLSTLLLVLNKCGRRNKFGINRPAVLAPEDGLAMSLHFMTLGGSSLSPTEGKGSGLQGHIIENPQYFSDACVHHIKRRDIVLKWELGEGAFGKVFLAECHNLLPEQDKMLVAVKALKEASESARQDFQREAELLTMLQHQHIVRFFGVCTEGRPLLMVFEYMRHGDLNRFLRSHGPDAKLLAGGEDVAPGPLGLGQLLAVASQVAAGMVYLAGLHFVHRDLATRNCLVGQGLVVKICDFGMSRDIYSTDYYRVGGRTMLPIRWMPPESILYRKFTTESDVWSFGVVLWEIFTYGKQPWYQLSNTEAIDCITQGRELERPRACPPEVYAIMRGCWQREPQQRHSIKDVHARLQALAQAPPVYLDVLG
ALK, sequence (Q9UM73 19-1620): as the sequence (Q9UM73 19-1620 G1202R) above, with R1184G counted along it
ROS1, sequence (P08922 28-2347): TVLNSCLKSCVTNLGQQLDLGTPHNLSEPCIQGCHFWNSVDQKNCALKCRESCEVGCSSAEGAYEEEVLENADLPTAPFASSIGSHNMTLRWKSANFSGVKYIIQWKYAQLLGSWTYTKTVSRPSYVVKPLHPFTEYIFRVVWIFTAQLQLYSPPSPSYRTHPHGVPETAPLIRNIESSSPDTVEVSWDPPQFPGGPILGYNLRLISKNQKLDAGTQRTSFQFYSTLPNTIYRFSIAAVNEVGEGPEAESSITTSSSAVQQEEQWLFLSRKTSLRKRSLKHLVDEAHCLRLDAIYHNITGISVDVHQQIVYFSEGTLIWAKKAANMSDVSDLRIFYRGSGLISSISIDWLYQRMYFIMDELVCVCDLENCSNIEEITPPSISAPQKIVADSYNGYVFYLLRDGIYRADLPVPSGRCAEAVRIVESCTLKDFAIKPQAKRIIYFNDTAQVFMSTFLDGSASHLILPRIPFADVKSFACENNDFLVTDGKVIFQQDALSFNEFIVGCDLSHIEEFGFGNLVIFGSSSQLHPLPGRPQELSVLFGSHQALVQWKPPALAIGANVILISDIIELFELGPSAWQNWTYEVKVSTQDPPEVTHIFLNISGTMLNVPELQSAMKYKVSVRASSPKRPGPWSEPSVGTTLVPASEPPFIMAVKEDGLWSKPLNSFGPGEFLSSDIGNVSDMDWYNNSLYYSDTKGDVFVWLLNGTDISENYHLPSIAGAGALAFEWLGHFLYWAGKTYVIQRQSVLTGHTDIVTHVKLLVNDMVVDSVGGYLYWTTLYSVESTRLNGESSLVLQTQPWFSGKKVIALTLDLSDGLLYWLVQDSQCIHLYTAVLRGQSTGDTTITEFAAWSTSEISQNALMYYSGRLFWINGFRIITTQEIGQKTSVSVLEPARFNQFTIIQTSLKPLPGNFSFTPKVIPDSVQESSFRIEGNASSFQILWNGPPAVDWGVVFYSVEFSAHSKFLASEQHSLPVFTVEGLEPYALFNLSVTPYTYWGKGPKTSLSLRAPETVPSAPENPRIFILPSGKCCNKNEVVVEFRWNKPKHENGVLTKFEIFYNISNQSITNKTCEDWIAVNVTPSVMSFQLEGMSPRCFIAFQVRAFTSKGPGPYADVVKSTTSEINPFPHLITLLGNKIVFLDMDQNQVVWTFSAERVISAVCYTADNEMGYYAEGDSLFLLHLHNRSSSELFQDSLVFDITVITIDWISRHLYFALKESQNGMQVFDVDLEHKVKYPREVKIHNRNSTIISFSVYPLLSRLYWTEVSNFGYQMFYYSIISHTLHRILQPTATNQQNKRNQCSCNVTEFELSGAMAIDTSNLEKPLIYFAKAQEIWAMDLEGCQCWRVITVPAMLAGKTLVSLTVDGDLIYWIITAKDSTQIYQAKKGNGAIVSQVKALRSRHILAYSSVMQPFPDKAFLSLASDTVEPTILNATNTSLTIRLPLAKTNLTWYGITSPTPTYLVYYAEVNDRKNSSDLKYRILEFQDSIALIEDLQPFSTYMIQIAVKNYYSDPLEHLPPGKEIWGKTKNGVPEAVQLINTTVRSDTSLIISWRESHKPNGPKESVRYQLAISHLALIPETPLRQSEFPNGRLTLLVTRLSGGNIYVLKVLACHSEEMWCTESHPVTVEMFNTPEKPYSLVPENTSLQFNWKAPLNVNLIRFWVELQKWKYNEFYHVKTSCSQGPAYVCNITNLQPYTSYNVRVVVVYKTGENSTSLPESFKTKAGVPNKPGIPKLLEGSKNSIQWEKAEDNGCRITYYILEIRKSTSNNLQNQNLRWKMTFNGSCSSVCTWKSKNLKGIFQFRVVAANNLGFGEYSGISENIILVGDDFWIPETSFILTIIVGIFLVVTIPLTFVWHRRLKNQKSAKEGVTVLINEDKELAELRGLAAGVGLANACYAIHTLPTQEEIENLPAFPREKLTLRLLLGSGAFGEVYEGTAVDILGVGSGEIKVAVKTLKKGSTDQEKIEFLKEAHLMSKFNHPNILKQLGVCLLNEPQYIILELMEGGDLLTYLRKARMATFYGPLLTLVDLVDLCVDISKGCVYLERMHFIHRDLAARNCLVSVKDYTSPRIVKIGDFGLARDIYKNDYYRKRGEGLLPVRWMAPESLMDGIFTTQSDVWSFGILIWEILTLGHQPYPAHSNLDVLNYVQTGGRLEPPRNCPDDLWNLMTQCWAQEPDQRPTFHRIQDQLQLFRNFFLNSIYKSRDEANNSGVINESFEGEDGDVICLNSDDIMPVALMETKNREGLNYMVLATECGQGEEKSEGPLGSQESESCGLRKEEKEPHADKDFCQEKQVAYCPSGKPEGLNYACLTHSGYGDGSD
TRKA, sequence (P04629 33-796): as the sequence (P04629 33-796 G667C limits assumed) above, with C635G counted along it
ROS1 (G2032R), sequence (P08922 28-2347 G2032R): as the sequence (P08922 28-2347) above, with G2005R counted along it

| SMILES | IC50 (TRKA (G677C)) [nM] | IC50 (ROS1) [nM] | IC50 (ROS1 (G2032R)) [nM] | IC50 (ALK (G1202R)) [nM] | IC50 (TRKA) [nM] | IC50 (ALK) [nM] |
| --- | --- | --- | --- | --- | --- | --- |
| C[C@@H](Nc1ccn2ncc(OC3=NCC(C)(C)N3)c2n1)c1cc(F)cc(F)c1F [Example 15] | 5 to 50 | 0.5 to 5 | 5 to 50 | 50 to 500 | 0.5 to 5 | 50 to 500 |
| C[C@@H](Nc1ccn2ncc(C3=NOCC(C)(C)N3)c2n1)c1cc(F)ccc1OC(F)F [Example 16] | 5 to 50 | 0.5 to 5 | 5 to 50 | 50 to 500 | 0.5 to 5 | 5 to 50 |
| C[C@@H](Nc1ccn2ncc(NC3=NCC(C)(C)N3)c2n1)c1cc(F)cc(F)c1F [Example 17] | 5 to 50 | 0.5 to 5 | 5 to 50 | 50 to 500 | 0.5 to 5 | 50 to 500 |
| COc1c(F)cc(F)cc1[C@@H](C)Nc1ccn2ncc(NC3=NC(C)(C)CO3)c2n1 [Example 18] | 5 to 50 | 0.5 to 5 | 5 to 50 | 50 to 500 | 0.5 to 5 | 5 to 50 |
| C[C@@H](Nc1ccn2ncc(C3=NOCCN3)c2n1)c1cc(F)cc(C(F)(F)F)c1F [Example 19] | 5 to 50 | 0.5 to 5 | 5 to 50 | 50 to 500 | 0.5 to 5 | 5 to 50 |
| CONC(=O)c1cnn2ccc(N[C@H](C)c3cc(F)cc(F)c3F)nc12 [Example 24] | 50 to 500 | 5 to 50 | 50 to 500 | 50 to 500 | 5 to 50 | 5 to 50 |
| C[C@@H](Nc1ccn2ncc(C3=NOCCN3)c2n1)c1cc(F)ccc1C(F)(F)F [Example 27] | 50 to 500 | 0.5 to 5 | 50 to 500 | 50 to 500 | 0.5 to 5 | 5 to 50 |
| C[C@@H](Nc1ccn2ncc(C3=NOCCN3)c2n1)c1cc(F)ccc1C(F)F [Example 28] | 50 to 500 | 0.5 to 5 | 50 to 500 | 50 to 500 | 0.5 to 5 | 5 to 50 |

The remaining lines, values ahead:

| IC50 (TRKA (G677C)) [nM] | IC50 (ROS1) [nM] | IC50 (ROS1 (G2032R)) [nM] | IC50 (ALK (G1202R)) [nM] | IC50 (TRKA) [nM] | IC50 (ALK) [nM] | SMILES |
| --- | --- | --- | --- | --- | --- | --- |
| 5 to 50 | 0.5 to 5 | 5 to 50 | 50 to 500 | 0.5 to 5 | 50 to 500 | COc1ccc(F)cc1[C@@H](C)Nc1ccn2ncc(OC3=NC(C)(C)CN3)c2n1 [Example 14] |
| 0.5 to 5 | < 0.5 | 0.5 to 5 | 5 to 50 | < 0.5 | 0.5 to 5 | COc1c(F)cc(F)cc1[C@@H](C)Nc1ccn2ncc(C3=NC(=O)C(C)(C)N3)c2n1 [Example 20] |
| 0.5 to 5 | < 0.5 | 0.5 to 5 | 5 to 50 | < 0.5 | 0.5 to 5 | C[C@@H](Nc1ccn2ncc(C3=NC(=O)C(C)(C)N3)c2n1)c1cc(F)ccc1OC(F)(F)F [Example 21] |
| 0.5 to 5 | < 0.5 | 0.5 to 5 | 5 to 50 | < 0.5 | 0.5 to 5 | CCOc1ncc(F)cc1[C@@H](C)Nc1ccn2ncc(C3=NOCCN3)c2n1 [Example 22] |
| 0.5 to 5 | < 0.5 | 0.5 to 5 | 50 to 500 | < 0.5 | 5 to 50 | C[C@@H](Nc1ccn2ncc(C3=NC(=O)C(C)(C)N3)c2n1)c1cc(F)cnc1OCC(F)(F)F [Example 23] |
| 0.5 to 5 | < 0.5 | 0.5 to 5 | 5 to 50 | < 0.5 | 0.5 to 5 | C[C@@H](Nc1ccn2ncc(C3=NC(=O)C(C)(C)N3)c2n1)c1cc(F)cnc1OC(F)(F)F [Example 25] |
